From PMC11079024, “Identification of a family of species-selective complex I inhibitors as potential anthelmintics” (Nature Communications, 2024)
Values joined by “and” are separate entries in the source; they are usually repeats but may differ in a detail not shown here. Equal values may be shown once. Read-outs that look alike come from different tables or passages of the source.

What was measured:
[1] = biological target: C. elegans (N2) complex I (NADH:ubiquinone oxidoreductase) (Caenorhabditis elegans, UniProt P24887+Q93873+Q94360); assay: biochemical; format: biochemical; conditions: C. elegans mitochondria, Mean, read-out: in vitro complex I activity relative to solvent control
Summary of the method: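 Complex I rate: initial linear slope of A600 over 15 min, expressed as percent of solvent control. Triple freeze-thawed mitochondria (0.2 mg/mL) in KPi pH 7.5, BSA 3 mg/mL, NADH 80 μM, decylubiquinone 60 μM, DCIP 160 μM, antimycin A, KCN.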

[2] = biological target: B. taurus (heart) complex I (Bos taurus, UniProt P03887+P17694+P42026); assay: biochemical; format: biochemical; conditions: for IC50: read-out: B. taurus Complex I IC50
Summary of the method: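 Complex I activity followed as DCIP reduction (600 nm, 30 s reads, 15 min) with 80 μM NADH and 60 μM decylubiquinone in 25 mM KPi pH 7.5 containing 2 μM antimycin A and 2 mM KCN. Freeze-thawed mouse or bovine heart mitochondria at 0.2 mg/mL; initial-rate percent of solvent control, single-point 100 μM or dose-response.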

[3] = B. taurus (heart) mitochondria, mean of replicates, read-out: percent (%) in vitro complex I activity relative to solvent control
[4] = B. taurus (heart) mitochondria, single replicate, read-out: percent (%) in vitro complex I activity relative to solvent control
[5] = B. taurus (heart) mitochondria, Mean of replicates, read-out: in vitro complex I activity relative to solvent control
[6] = B. taurus (heart) mitochondria, single replicate, read-out: in vitro complex I activity relative to solvent control

Chain of B. taurus (heart) complex I (P03887 whole entry): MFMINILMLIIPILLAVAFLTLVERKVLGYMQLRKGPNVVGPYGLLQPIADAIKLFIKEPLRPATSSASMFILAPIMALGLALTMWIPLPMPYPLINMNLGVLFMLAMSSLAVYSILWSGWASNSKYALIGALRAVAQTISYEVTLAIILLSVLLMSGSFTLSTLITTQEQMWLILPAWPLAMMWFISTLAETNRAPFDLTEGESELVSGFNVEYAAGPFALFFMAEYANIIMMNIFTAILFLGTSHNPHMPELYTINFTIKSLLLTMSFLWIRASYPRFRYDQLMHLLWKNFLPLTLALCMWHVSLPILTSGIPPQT
Chain of B. taurus (heart) complex I (P17694 34-463): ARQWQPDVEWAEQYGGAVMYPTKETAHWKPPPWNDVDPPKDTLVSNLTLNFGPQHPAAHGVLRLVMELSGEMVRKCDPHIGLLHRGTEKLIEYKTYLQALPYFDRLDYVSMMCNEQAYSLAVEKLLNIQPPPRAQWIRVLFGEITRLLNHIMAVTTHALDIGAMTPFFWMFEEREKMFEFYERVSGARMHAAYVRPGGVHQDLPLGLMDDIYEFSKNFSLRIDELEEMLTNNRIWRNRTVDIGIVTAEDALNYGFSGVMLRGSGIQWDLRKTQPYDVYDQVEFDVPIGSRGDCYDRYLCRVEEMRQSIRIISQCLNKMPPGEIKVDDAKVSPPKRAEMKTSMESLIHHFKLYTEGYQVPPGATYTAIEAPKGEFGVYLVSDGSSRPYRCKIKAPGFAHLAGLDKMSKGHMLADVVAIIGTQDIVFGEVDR
Chain of B. taurus (heart) complex I (P42026 38-216): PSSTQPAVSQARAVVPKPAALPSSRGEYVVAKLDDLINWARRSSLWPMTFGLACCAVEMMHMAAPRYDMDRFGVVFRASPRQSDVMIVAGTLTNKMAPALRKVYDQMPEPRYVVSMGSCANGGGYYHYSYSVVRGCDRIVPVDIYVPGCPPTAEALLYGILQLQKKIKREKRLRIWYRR
Chain of C. elegans (N2) complex I (NADH:ubiquinone oxidoreductase) (Q94360 17-199): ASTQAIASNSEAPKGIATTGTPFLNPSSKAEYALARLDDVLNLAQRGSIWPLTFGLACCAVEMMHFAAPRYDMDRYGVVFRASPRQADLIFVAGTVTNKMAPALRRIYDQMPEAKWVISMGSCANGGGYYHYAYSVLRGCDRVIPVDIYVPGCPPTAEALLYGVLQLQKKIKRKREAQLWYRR
Chain of C. elegans (N2) complex I (NADH:ubiquinone oxidoreductase) (P24887 whole entry): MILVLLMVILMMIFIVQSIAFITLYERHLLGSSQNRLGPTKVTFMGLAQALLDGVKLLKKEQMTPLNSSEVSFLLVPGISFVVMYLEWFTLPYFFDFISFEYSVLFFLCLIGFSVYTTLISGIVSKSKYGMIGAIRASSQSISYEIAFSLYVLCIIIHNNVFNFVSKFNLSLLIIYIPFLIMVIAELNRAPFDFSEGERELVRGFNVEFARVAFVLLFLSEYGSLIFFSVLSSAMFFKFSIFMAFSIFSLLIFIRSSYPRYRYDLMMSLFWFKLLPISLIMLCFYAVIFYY
Chain of C. elegans (N2) complex I (NADH:ubiquinone oxidoreductase) (Q93873 31-482): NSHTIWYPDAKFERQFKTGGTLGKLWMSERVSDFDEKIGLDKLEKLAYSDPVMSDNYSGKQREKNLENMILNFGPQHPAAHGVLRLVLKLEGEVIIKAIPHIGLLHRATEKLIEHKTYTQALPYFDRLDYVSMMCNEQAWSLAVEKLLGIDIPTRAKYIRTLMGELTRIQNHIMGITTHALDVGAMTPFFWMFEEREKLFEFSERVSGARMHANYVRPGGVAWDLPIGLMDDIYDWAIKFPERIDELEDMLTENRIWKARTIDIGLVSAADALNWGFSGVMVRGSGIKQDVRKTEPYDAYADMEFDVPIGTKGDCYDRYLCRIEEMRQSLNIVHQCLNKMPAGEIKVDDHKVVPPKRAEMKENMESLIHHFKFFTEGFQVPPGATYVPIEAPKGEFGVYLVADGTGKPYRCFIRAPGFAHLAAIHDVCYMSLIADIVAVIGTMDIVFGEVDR

With `CC(C)Cc1ccc(C(C)c2nc3ccccc3n2C)cc1` (stereo not shown) [NPD8790] the remaining activity at 0.625 µM ([1]; 0.625 µM) was 87%, the remaining activity at 1.5 µM ([1]; 1.5 µM) was 72.5% and the remaining activity at 0.125 µM ([2]; 0.125 µM, B. taurus (heart) mitochondria, mean of replicates, read-out: percent (%) in vitro complex I activity relative to solvent control) was 101%. The remaining activity at 0.313 µM [2, 3] was 112%, the remaining activity at 0.313 µM [2, 4] was 118% and the remaining activity at 0.625 µM [2, 3] was 103%. It also gave a remaining activity at 0.625 µM [2, 4] of 96.1%, a remaining activity at 1.5 µM [2, 3] of 107% and a remaining activity at 3 µM [2, 3] of 104%. For the same compound, the remaining activity at 15 µM [2, 3] was 79.4%, the remaining activity at 37.5 µM [2, 3] was 38% and the remaining activity at 37.5 µM [2, 4] was 38.8%. For the same compound, the remaining activity at 75 µM [2, 3] was 13.6%, the remaining activity at 0.06 µM ([2]; B. taurus (heart) mitochondria, 0.06 µM, Mean of replicates, read-out: in vitro complex I activity relative to solvent control) was 103% and the remaining activity at 0.13 µM ([2]; B. taurus (heart) mitochondria, 0.13 µM, Mean of replicates, read-out: in vitro complex I activity relative to solvent control) was 101%. For the same compound, the remaining activity at 0.313 µM [2, 5] was 112%, the remaining activity at 0.313 µM [2, 6] was 118% and the remaining activity at 0.625 µM [2, 5] was 103%. For the same compound, the remaining activity at 0.625 µM [2, 6] was 96.1%, the remaining activity at 1.5 µM [2, 5] was 107% and the remaining activity at 3 µM [2, 5] was 104%. The remaining activity at 15 µM [2, 5] was 79.4%, the remaining activity at 37.5 µM [2, 5] was 38% and the remaining activity at 37.5 µM [2, 6] was 38.8%. It also gave a remaining activity at 75 µM [2, 5] of 13.6%, an IC50 ([2]; B. taurus heart mitochondria) of 27.2 µM and an activity at 0.0001 µM ([2]; B. taurus, dose 0.0001 µM, Mean of replicates, read-out: Complex I activity, dose-response data) of 104%. The “Complex I activity, dose-response data” value ([2]; B. taurus, dose 0.0001 µM, individual replicates (Rep)) was 106.495 and 102.513 and 108.647, the activity at 0.0001 µM ([2]; B. taurus, dose 0.0001 µM, individual replicates (Rep), read-out: Complex I activity, dose-response data) was 97.6% and the activity at 0.0005 µM ([2]; B. taurus, dose 0.0005 µM, Mean of replicates, read-out: Complex I activity, dose-response data) was 101%. For the same compound, the “Complex I activity, dose-response data” value ([2]; B. taurus, dose 0.0005 µM, individual replicates (Rep)) was 104.650 and 93.657 and 105.597, the activity at 0.0005 µM ([2]; B. taurus, dose 0.0005 µM, individual replicates (Rep), read-out: Complex I activity, dose-response data) was 99.4% and the activity at 0.001 µM ([2]; B. taurus, dose 0.001 µM, Mean of replicates, read-out: Complex I activity, dose-response data) was 105%. For the same compound, the “Complex I activity, dose-response data” value ([2]; B. taurus, dose 0.001 µM, individual replicates (Rep)) was 106.670 and 104.354 and 107.534, the activity at 0.001 µM ([2]; B. taurus, dose 0.001 µM, individual replicates (Rep), read-out: Complex I activity, dose-response data) was 103% and the activity at 0.0025 µM ([2]; B. taurus, dose 0.0025 µM, Mean of replicates, read-out: Complex I activity, dose-response data) was 104%. For the same compound, the “Complex I activity, dose-response data” value ([2]; B. taurus, dose 0.0025 µM, individual replicates (Rep)) was 99.492 and 117.130 and 91.896 and 108.464, the activity at 0.005 µM ([2]; B. taurus, dose 0.005 µM, Mean of replicates, read-out: Complex I activity, dose-response data) was 114% and the “Complex I activity, dose-response data” value ([2]; B. taurus, dose 0.005 µM, individual replicates (Rep)) was 112.174 and 127.690 and 101.653 and 112.765. The activity at 0.013 µM ([2]; B. taurus, dose 0.013 µM, Mean of replicates, read-out: Complex I activity, dose-response data) was 99.8%, the “Complex I activity, dose-response data” value ([2]; B. taurus, dose 0.013 µM, individual replicates (Rep)) was 108.528 and 89.880 and 103.599 and the activity at 0.013 µM ([2]; B. taurus, dose 0.013 µM, individual replicates (Rep), read-out: Complex I activity, dose-response data) was 97.2%. For the same compound, the activity at 0.025 µM ([2]; B. taurus, dose 0.025 µM, Mean of replicates, read-out: Complex I activity, dose-response data) was 101%, the “Complex I activity, dose-response data” value ([2]; B. taurus, dose 0.025 µM, individual replicates (Rep)) was 88.122 and 92.313 and 109.456 and the activity at 0.063 µM ([2]; B. taurus, dose 0.063 µM, Mean of replicates, read-out: Complex I activity, dose-response data) was 103%. The “Complex I activity, dose-response data” value ([2]; B. taurus, dose 0.063 µM, individual replicates (Rep)) was 101.538 and 112.181 and 91.251 and 105.094, the activity at 0.125 µM ([2]; B. taurus, dose 0.125 µM, Mean of replicates, read-out: Complex I activity, dose-response data) was 101% and the “Complex I activity, dose-response data” value ([2]; B. taurus, dose 0.125 µM, individual replicates (Rep)) was 111.398 and 110.709 and 87.488 and 92.420. For the same compound, the activity at 0.313 µM ([2]; B. taurus, dose 0.313 µM, Mean of replicates, read-out: Complex I activity, dose-response data) was 112%, the “Complex I activity, dose-response data” value ([2]; B. taurus, dose 0.313 µM, individual replicates (Rep)) was 118.464 and 105.228 and 106.985 and the activity at 0.313 µM ([2]; B. taurus, dose 0.313 µM, individual replicates (Rep), read-out: Complex I activity, dose-response data) was 118%. The activity at 0.625 µM ([2]; B. taurus, dose 0.625 µM, Mean of replicates, read-out: Complex I activity, dose-response data) was 103%, the “Complex I activity, dose-response data” value ([2]; B. taurus, dose 0.625 µM, individual replicates (Rep)) was 106.273 and 97.568 and 112.424 and the activity at 0.625 µM ([2]; B. taurus, dose 0.625 µM, individual replicates (Rep), read-out: Complex I activity, dose-response data) was 96.1%. For the same compound, the activity at 1.5 µM ([2]; B. taurus, dose 1.5 µM, Mean of replicates, read-out: Complex I activity, dose-response data) was 107%, the “Complex I activity, dose-response data” value ([2]; B. taurus, dose 1.5 µM, individual replicates (Rep)) was 108.615 and 114.555 and 94.027 and 109.488 and the activity at 3 µM ([2]; B. taurus, dose 3 µM, Mean of replicates, read-out: Complex I activity, dose-response data) was 104%. For the same compound, the “Complex I activity, dose-response data” value ([2]; B. taurus, dose 3 µM, individual replicates (Rep)) was 105.743 and 114.475 and 92.946 and 103.733, the activity at 15 µM ([2]; B. taurus, dose 15 µM, Mean of replicates, read-out: Complex I activity, dose-response data) was 79.4% and the “Complex I activity, dose-response data” value ([2]; B. taurus, dose 15 µM, individual replicates (Rep)) was 82.876 and 90.607 and 69.676 and 74.384. For the same compound, the activity at 37.5 µM ([2]; B. taurus, dose 37.5 µM, Mean of replicates, read-out: Complex I activity, dose-response data) was 38%, the “Complex I activity, dose-response data” value ([2]; B. taurus, dose 37.5 µM, individual replicates (Rep)) was 49.756 and 32.716 and 30.663 and the activity at 37.5 µM ([2]; B. taurus, dose 37.5 µM, individual replicates (Rep), read-out: Complex I activity, dose-response data) was 38.8%. The activity at 75 µM ([2]; B. taurus, dose 75 µM, Mean of replicates, read-out: Complex I activity, dose-response data) was 13.6%, the “Complex I activity, dose-response data” value ([2]; B. taurus, dose 75 µM, individual replicates (Rep)) was 6.165 and 16.790 and 16.865 and 14.475 and the IC50 ([2]; heart mitochondria) was 27.2 µM. The “Log IC50 B. taurus complex I” value ([2]; log10 of IC50 in µM, B. taurus mitochondria) was 1.43 µM.
